According to paper PMC2546444, “Anti-Plasmodium Activity of Angiotensin II and Related Synthetic Peptides” (PLoS ONE, 2008):
Positions of bridges follow the written chain, without caps; N, C: chain ends. Residues, ends and D or L forms follow the SMILES beside them. No end group written: not given here.

Tests used:
[1] = tested on: fresh human erythrocytes; assay: Hemolytic activity; type: cell-based; settings: peptide 0.19 to 100 μM; 0.4% human erythrocytes in PBS pH 7.4, 1 h at 37°C, read at 405 nm; triplicate
Protocol: Hemolytic activity was evaluated on fresh human erythrocytes washed three times with phosphate-buffered saline (PBS: 10 mM Na2HPO4, 1.8 mM K2-HPO4, pH 7.4, containing 140 mM NaCl and 2.7 mM KCl) ). Serial dilutions of the peptides with concentrations varying between 0.19–100 μM were incubated in Eppendorf tubes with a suspension of 0.4% erythrocytes in PBS. After 1 h at 37°C, the test tubes were centrifuged at 300g for 5 min at 5°C. Fifty microliter aliquots of the supernatants were transferred to 96-well plates and hemolysis was monitored at 405 nm using a microtiter plate reader. Negative and positive controls were prepared in PBS and in PBS supplemented with 0.1% SDS, respectively. Ang ll of the experiments was performed in triplicate.

[2] = 25% pooled non-heat inactivated human serum in PBS, 37°C; 20 μl of 10 mg/ml stock in 1 ml; sampling 0-120 min; LC/ESI-MS peak area; triplicates; data not shown
[3] = tested on: Ae.aegypti mosquitoes; assay: Survival of mosquitoes injected with ang II; type: in vivo, Aedes aegypti; settings: 0.5 μl ang II at 10-200 μM intrathoracically; chi-square test p>0.5; mean of three independent experiments
Protocol: Supplementary file pone.0003296.s001.tif: Figure S1 Survival of mosquitoes injected with different ang II concentrations. Ae.aegypti mosquitoes (10 females) were injected intrathoracically (0.5 μl) of ang II at 10 μM, 20 μM, 50 μM, 60 μM, 100 μM and 200 μM. After 24 hour the survival of mosquitoes was scored. […] Results are the mean of three independent experiments (20 mosquitoes/group), and bars represent standard errors of the mean. (0.18 MB TIF) Click here for additional data file.

Row | Molecule | time to degradation in serum [min] | Hemolytic Activity [1] | time within which the peptide was degraded in serum [2] [min] | effect on mosquito survival after 24 hour [3]
1 | DRDVKYIHPF [VC6, [endo-(Asp^2a), endo-(Lys^3a)]-All] | < 30 | neg |  | 
2 | CC[C@H](C)[C@H](NC(=O)[C@H](Cc1ccc(O)cc1)NC(=O)[C@@H]1CCCCNC(=O)C[C@H](NC(=O)[C@H](CCCNC(=N)N)NC(=O)[C@@H](N)CC(=O)O)C(=O)N[C@@H](C(C)C)C(=O)N1)C(=O)N[C@@H](Cc1c[nH]cn1)C(=O)N1CCC[C@H]1C(=O)N[C@@H](Cc1ccccc1)C(=O)O [VC5, Cyclo(2a-3a)[endo-(Asp^2a), endo-(Lys^3a)]-All] (H-DRDVKYIHPF-OH; lactam 3-5) | < 30 | neg |  | 
3 | CC[C@H](C)[C@H](NC(=O)[C@H](Cc1ccc(O)cc1)NC(=O)[C@@H](NC(=O)[C@H](CCCNC(=N)N)NC(=O)[C@@H]1CCCCNC(=O)C[C@H](N)C(=O)N[C@@H](CC(=O)O)C(=O)N1)C(C)C)C(=O)N[C@@H](Cc1c[nH]cn1)C(=O)N1CCC[C@H]1C(=O)N[C@@H](Cc1ccccc1)C(=O)O [VC1, Cyclo(0-1a)[Asp^0, endo-(Lys^1a)]-All] (H-DDKRVYIHPF-OH; lactam 1-3) | < 30 | neg |  | 
4 | CC[C@H](C)[C@H](NC(=O)[C@H](Cc1ccc(O)cc1)NC(=O)[C@@H](NC(=O)[C@@H]1CCCCNC(=O)C[C@H](NC(=O)[C@@H](N)CC(=O)O)C(=O)N[C@@H](CCCNC(=N)N)C(=O)N1)C(C)C)C(=O)N[C@@H](Cc1c[nH]cn1)C(=O)N1CCC[C@H]1C(=O)N[C@@H](Cc1ccccc1)C(=O)O [VC3, Cyclo(1a-2a)[endo-(Asp^1a), endo-(Lys^2a)]-All] (H-DDRKVYIHPF-OH; lactam 2-4) | < 30 | neg |  | 
5 | DDKRVYIHPF [VC2, [Asp^0, endo-(Lys^1a)]-All] | < 30 | neg |  | 
6 | DDRKVYIHPF [VC4, [endo-(Asp^1a), endo-(Lys^2a)]-All] | < 30 | neg |  | 
7 | CC[C@H](C)[C@H](NC(=O)[C@H](Cc1ccc(O)cc1)NC(=O)[C@@H](NC(=O)[C@H](CCCNC(=N)N)NC(=O)[C@@H](N)CC(=O)O)C(C)C)C(=O)N[C@@H](Cc1cnc[nH]1)C(=O)N1CCC[C@H]1C(=O)N[C@@H](Cc1ccccc1)C(=O)O [ang II, Angiotensin II] |  | neg | ≤ 30 | no significant effects
